The subject of the assay is P388 leukemia ip, CD2F1 mice, survival T/C. In words: NCI In Vivo Anticancer Drug Screen. Data for tumor model P388 Leukemia (intraperitoneal) in CD2F1 (CDF1) mice. To be noted: endpoint: median survival time, higher = longer survival. The method, boiled down:
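Mice carrying the transplanted tumor received test compound or vehicle. Survival was recorded in each group, and the value is the treated-group measurement divided by that of the vehicle-treated control group.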

Where [1] appears, read: dose: 100.0 mg/kg/injection, schedule: Q04DX003 (ip), vehicle: saline with Tween-80.
Where [2] appears, read: dose: 200.0 mg/kg/injection, schedule: Q04DX003 (ip), vehicle: saline with Tween-80.
[3] abbreviates: dose: 50.0 mg/kg/injection, schedule: Q01DX005 (ip), vehicle: Klucel (hydroxypropylcellulose) (HPC).
The mark [4] stands for this setting: dose: 100.0 mg/kg/injection, schedule: Q01DX005 (ip), vehicle: Klucel (hydroxypropylcellulose) (HPC).
Where [5] appears, read: dose: 200.0 mg/kg/injection, schedule: Q01DX005 (ip), vehicle: Klucel (hydroxypropylcellulose) (HPC).
Setting [6] is: dose: 12.5 mg/kg/injection, schedule: Q01DX005 (ip), vehicle: saline with Tween-80.
[7] abbreviates: dose: 25.0 mg/kg/injection, schedule: Q01DX005 (ip), vehicle: saline with Tween-80.
The mark [8] stands for this setting: dose: 50.0 mg/kg/injection, schedule: Q01DX005 (ip), vehicle: saline with Tween-80.
Where [9] appears, read: dose: 50.0 mg/kg/injection, schedule: Q01DX009 (ip), vehicle: saline with Tween-80.
Setting [10] is: dose: 12.5 mg/kg/injection, schedule: Q01DX009 (ip), vehicle: Klucel (hydroxypropylcellulose) (HPC).
The mark [11] stands for this setting: dose: 25.0 mg/kg/injection, schedule: Q01DX009 (ip), vehicle: Klucel (hydroxypropylcellulose) (HPC).
Setting [12] is: dose: 50.0 mg/kg/injection, schedule: Q01DX009 (ip), vehicle: Klucel (hydroxypropylcellulose) (HPC).
The mark [13] stands for this setting: dose: 100.0 mg/kg/injection, schedule: Q01DX009 (ip), vehicle: saline with Tween-80.
Setting [14] is: dose: 100.0 mg/kg/injection, schedule: Q01DX009 (ip), vehicle: Klucel (hydroxypropylcellulose) (HPC).
The mark [15] stands for this setting: dose: 200.0 mg/kg/injection, schedule: Q01DX009 (ip), vehicle: Klucel (hydroxypropylcellulose) (HPC).

Several values for one entry are separate records, joined by “and”; a condition that tells them apart may be missing. Equal values may be shown once. Inconclusive results and toxic doses are left out.

Turning to `CSc1nc(N)nc2nc[nH]c12`, the T/C is, setting by setting: under setting [1], 104 % of control; under setting [2], 122 % of control.
For the compound `CC(C)C(CC[C@@H](C)C1CC[C@@]2(C)C3=C(CC[C@]12C)[C@@]1(C)CC[C@H](O)C(C)(C)[C@@H]1CC3)S[As](C)C` (stereo not given in full), the T/C under setting [3] is 92 % of control, the T/C under setting [4] was 95 % of control and the T/C under setting [5] was 97 % of control.
As to `CN1CCN=C1c1ccc(NC(=O)c2ccc(C(=O)Nc3ccc(C4=NCCN4C)cc3)c([N+](=O)[O-])c2)cc1`, the T/C is 110 % of control and 113 % of control (dose: 0.78 mg/kg/injection, schedule: Q01DX005 (ip), vehicle: saline with Tween-80); 112 % of control and 114 % of control (dose: 1.56 mg/kg/injection, schedule: Q01DX005 (ip), vehicle: saline with Tween-80); 124 % of control (dose: 3.13 mg/kg/injection, schedule: Q01DX005 (ip), vehicle: saline with Tween-80).
`Cc1cc(N(C)C)c2ccc(N(C)C)cc2n1`: the T/C is, setting by setting: under setting [6], 97 % of control; under setting [7], 98 % of control; under setting [8], 99 % of control and 104 % of control.
Consider `CCc1nc(N)nc(N)c1-c1ccc(OC)c([N+](=O)[O-])c1`, for which the T/C was 151 % of control and 189 % of control (dose: 120.0 mg/kg/injection, schedule: Q01DX005 (ip), vehicle: saline with Tween-80); 90 % of control (dose: 480.0 mg/kg/injection, schedule: Q01DX005 (ip), vehicle: saline with Tween-80).
Turning to `CCCCCCCCCCC[N+](C)([O-])CCCCCC[N+](C)([O-])CCCCCCCCCCC` (stereo not given), the T/C reads like this: (dose: 12.5 mg/kg/injection, schedule: Q01DX009 (ip), vehicle: saline with Tween-80) 100 % of control; (dose: 25.0 mg/kg/injection, schedule: Q01DX009 (ip), vehicle: saline with Tween-80) 100 % of control; under setting [9], 102 % of control and 96 % of control.
For `CC1=CC2c3cccc4[nH]cc(c34)CC2N(C)C1` (stereo not given), the T/C by setting is: (dose: 2.5 mg/kg/injection, schedule: Q01DX009 (ip), vehicle: saline) 114 % of control and 116 % of control; (dose: 5.0 mg/kg/injection, schedule: Q01DX009 (ip), vehicle: saline) 117 % of control; (dose: 10.0 mg/kg/injection, schedule: Q01DX009 (ip), vehicle: saline) 116 % of control and 120 % of control.
As to `C/C1=C\C(=O)OCC23CCC4(C)OC4C2OC2CC(OC(=O)/C=C/C=C/C(C(C)O)OCC1O)C3(C)C21CO1` (stereo not given), the T/C by setting is: (dose: 1.25 mg/kg/injection, schedule: Q01DX005 (ip), vehicle: saline + alcohol) 121 % of control and 123 % of control; (dose: 5.0 mg/kg/injection, schedule: Q01DX005 (ip), vehicle: saline + alcohol) 124 % of control; (dose: 10.0 mg/kg/injection, schedule: Q01DX005 (ip), vehicle: saline + alcohol) 150 % of control; (dose: 20.0 mg/kg/injection, schedule: Q01DX005 (ip), vehicle: saline + alcohol) 159 % of control.
Turning to `CCN(CC)CC(C)(C)C(=O)/C=C/c1ccccc1`, the T/C is, setting by setting: (dose: 60.0 mg/kg/injection, schedule: Q01DX005 (ip), vehicle: saline) 103 % of control; (dose: 120.0 mg/kg/injection, schedule: Q01DX005 (ip), vehicle: saline) 102 % of control; (dose: 240.0 mg/kg/injection, schedule: Q01DX005 (ip), vehicle: saline) 115 % of control.
Regarding `O/N=C(\C[P+](c1ccccc1)(c1ccccc1)c1ccccc1)c1ccccc1`, the T/C is 100 % of control under setting [10], 99 % of control under setting [11] and 102 % of control under setting [12].
As for `CNC(=O)O/N=C/c1ccccc1-c1ccccc1`, the T/C under setting [9] is 97 % of control and the T/C under setting [13] was 86 % of control.
Turning to `Cc1c(N=Nc2cccc(F)c2)c(-c2ccccc2)nn1C(N)=S`, the T/C was 95 % of control under setting [6], 95 % of control under setting [7] and 101 % of control under setting [8].
In the case of `COC1=C(C)C2CC(=O)OC3C(O)C4C(C)CC(O)C(=O)C4(C)C(C1=O)C23C` (stereo not given), the T/C was 105 % of control (dose: 3.0 mg/kg/injection, schedule: Q01DX009 (ip), vehicle: alcohol); 104 % of control (dose: 6.0 mg/kg/injection, schedule: Q01DX009 (ip), vehicle: alcohol); 107 % of control (dose: 12.0 mg/kg/injection, schedule: Q01DX009 (ip), vehicle: alcohol).
With `CC/C(Cc1ccc(OC)cc1)=C(/CC)c1ccc(OC)cc1`, the T/C runs as follows: under setting [3], 98 % of control; under setting [4], 92 % of control; under setting [5], 102 % of control.
For the compound `Cc1ccc2c(=O)[nH]cnc2c1`, the T/C was 100 % of control under setting [10]; 98 % of control and 100 % of control under setting [11]; 99 % of control and 103 % of control under setting [12]; 101 % of control and 110 % of control and 97 % of control under setting [14]; 113 % of control under setting [15].
Take `CC(=O)Oc1cc(C)c(Cl)c2c(OC(C)=O)cc(C(C)=O)c(O)c12`: the T/C by setting is: under setting [12], 91 % of control; under setting [14], 91 % of control; under setting [15], 90 % of control.
With `CC1OC(OCc2ccc3c(c2)C(=O)c2ccccc2C3=O)CC(N)C1O` (stereo not given), the T/C was 105 % of control (dose: 1.56 mg/kg/injection, schedule: Q01DX009 (ip), vehicle: water); 104 % of control (dose: 3.12 mg/kg/injection, schedule: Q01DX009 (ip), vehicle: water); 100 % of control (dose: 6.25 mg/kg/injection, schedule: Q01DX009 (ip), vehicle: water); 100 % of control (dose: 12.5 mg/kg/injection, schedule: Q01DX009 (ip), vehicle: water); 103 % of control (dose: 25.0 mg/kg/injection, schedule: Q01DX009 (ip), vehicle: water); 92 % of control (dose: 50.0 mg/kg/injection, schedule: Q01DX009 (ip), vehicle: water).
Regarding `CCSC(C(OC(C)=O)C(OC(C)=O)C(OC(C)=O)C(COC(C)=O)OC(C)=O)n1cnc2c(=S)nc[nH]c21` (stereo not given), the T/C is, setting by setting: under setting [8], 107 % of control; (dose: 200.0 mg/kg/injection, schedule: Q01DX005 (ip), vehicle: saline with Tween-80) 87 % of control.
Regarding `NC(=S)N/N=C/c1nc2ccccc2[nH]1`, the T/C was 100 % of control (dose: 25.0 mg/kg/injection, schedule: Q04DX003 (ip), vehicle: saline with Tween-80); 100 % of control (dose: 50.0 mg/kg/injection, schedule: Q04DX003 (ip), vehicle: saline with Tween-80); 106 % of control under setting [1]; 91 % of control under setting [2].
Regarding `Cc1ccc[n+](Cc2ccccc2Cl)c1`, the T/C is 113 % of control (dose: 12.5 mg/kg/injection, schedule: Q01DX005 (ip), vehicle: Klucel (hydroxypropylcellulose) (HPC)); 113 % of control (dose: 25.0 mg/kg/injection, schedule: Q01DX005 (ip), vehicle: Klucel (hydroxypropylcellulose) (HPC)); 101 % of control under setting [3].
Turning to `C=CCOC(CCC)OCC=C`, the T/C reads like this: under setting [12], 97 % of control; under setting [14], 97 % of control.
For `O=C1OCc2cc(O)ccc21`, the T/C is, setting by setting: under setting [3], 102 % of control; under setting [4], 100 % of control; under setting [5], 104 % of control.
For the compound `CC(C)(C)COCC(O)Cn1cnc2c(N)ncnc21` (stereo not given), the T/C by setting is: under setting [3], 100 % of control; under setting [4], 97 % of control; under setting [5], 91 % of control.
Turning to `CN(C)c1ccc2c(c1)Sc1cc(N(C)C)ccc1N2C(=O)c1ccccc1`, the T/C is, setting by setting: under setting [10], 105 % of control; under setting [11], 103 % of control; under setting [12], 102 % of control; under setting [14], 98 % of control.
`CC(=O)O[C@H]1CC[C@]2(C)C34OC3C[C@]3(C)[C@@H](C(C)=O)CC[C@H]3[C@]43C=C[C@@]2(C1)C1C(=O)OC(=O)C13` (stereo not given in full): the T/C under setting [3] was 112 % of control and the T/C under setting [4] is 106 % of control.
In the case of `O=CC1C2C=CCC12` (stereo not given), the T/C is 113 % of control under setting [13]; 118 % of control (dose: 200.0 mg/kg/injection, schedule: Q01DX009 (ip), vehicle: saline with Tween-80); 113 % of control (dose: 400.0 mg/kg/injection, schedule: Q01DX009 (ip), vehicle: saline with Tween-80).
For the compound `COc1ccc(CSC(=S)Nc2ccccc2C(F)(F)F)cc1`, the T/C is, setting by setting: (dose: 50.0 mg/kg/injection, schedule: Q01DX009 (ip), vehicle: suspension in saline) 93 % of control; (dose: 100.0 mg/kg/injection, schedule: Q01DX009 (ip), vehicle: suspension in saline) 91 % of control; (dose: 200.0 mg/kg/injection, schedule: Q01DX009 (ip), vehicle: suspension in saline) 92 % of control.
With `Cc1nn(C(=O)c2ccncc2)c(C)c1N=Nc1ccc(S(N)(=O)=O)cc1`, the T/C is 105 % of control under setting [12] and 101 % of control under setting [14].

Source of the values: PubChem BioAssay AID330 (DTP/NCI, 2004).
